From PubChem BioAssay (NCI) come the findings set out here.

Some test systems named below: CCRF-CEM leukemia; HOP-92 NSCLC; KM12 colon; LOX IMVI melanoma; M14 melanoma; MCF7 breast; MDA-MB-231 breast; OVCAR-5 ovarian; RXF 393 renal; SR leukemia.
What all share (test): NCI anticancer screen, dose series, 48 h

Structures are written as SMILES.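 Dose response: 5 concentrations. Exposure: 48 h. Format: 96-well plates. Endpoint: linear interpolation; highest concentration if not reached. GI50 = concentration required for 50% inhibition of growth. TGI is the concentration that stops growth completely.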 Where only a bound is given, the exact number is not on record here.

For `COc1cc(C2CC(c3ccc(N(C)C)cc3)=NN2C(C)=O)cc(OC)c1OC` (centres undefined), the GI50 with CCRF-CEM leukemia was 8.17 µM; with HOP-92 NSCLC it was 29600 nM; with KM12 colon it was 933 nM; in the assay with LOX IMVI melanoma it was 2280 nM; with M14 melanoma, 1390 nM; with MCF7 breast it was 577 nM. For the same compound, the GI50 is 4.74 µM in the assay with MDA-MB-231 breast, > 27.8 µM in the assay on OVCAR-5 ovarian, 2730 nM in the assay on RXF 393 renal and 2390 nM in the assay on SR leukemia. In addition, the TGI in the assay on CCRF-CEM leukemia is > 100 µM; in the assay with HOP-92 NSCLC it was > 100 µM; in the assay on KM12 colon, > 52.8 µM; with LOX IMVI melanoma, > 100 µM; in the assay with M14 melanoma, > 100 µM; in the assay on MCF7 breast, > 100 µM. Besides, the TGI was > 100 µM with MDA-MB-231 breast, > 100 µM with OVCAR-5 ovarian, > 22.9 µM in the assay with RXF 393 renal and > 100 µM in the assay with SR leukemia.

As for `COc1cc2c3c(n(C)c(=O)c2cc1OC)-c1cc2c(cc1/C3=C\C(N)CN)OCO2` (centres undefined), the GI50 in the assay with CCRF-CEM leukemia is 0.333 µM; in the assay on HOP-92 NSCLC, 368 nM; in the assay with KM12 colon, 2390 nM; with LOX IMVI melanoma it was 1050 nM; with M14 melanoma, 2230 nM; in the assay with MCF7 breast, 510 nM. The GI50 in the assay with MDA-MB-231 breast was 4.15 µM; in the assay on OVCAR-5 ovarian, 4.43 µM; with RXF 393 renal, 666 nM; in the assay with SR leukemia it was 219 nM. In addition, the TGI was determined as 3.63 µM with CCRF-CEM leukemia; 6.8 µM in the assay with HOP-92 NSCLC; 28.3 µM with KM12 colon; 3.12 µM in the assay on LOX IMVI melanoma; 7.26 µM in the assay with M14 melanoma; 7 µM in the assay on MCF7 breast. The TGI in the assay on MDA-MB-231 breast was > 53.3 µM; with OVCAR-5 ovarian, > 30.9 µM; with RXF 393 renal, 3.38 µM.

In the case of `CCNCCNc1cc(C2CCCCC2)c(C#N)c2nc3ccccc3n12`, the GI50 with CCRF-CEM leukemia is 1.3 µM; in the assay with HOP-92 NSCLC it was 2280 nM; in the assay with KM12 colon, 2760 nM; in the assay with LOX IMVI melanoma, 568 nM; with M14 melanoma, 1930 nM; in the assay on MCF7 breast, 1530 nM. Moreover, the GI50 in the assay with MDA-MB-231 breast was 1.95 µM; in the assay on OVCAR-5 ovarian, 2.57 µM; with RXF 393 renal it was 1700 nM; with SR leukemia, 288 nM. Also, the TGI in the assay on CCRF-CEM leukemia worked out at 3.28 µM; with HOP-92 NSCLC, 4.08 µM; in the assay with KM12 colon, 8.48 µM; in the assay on LOX IMVI melanoma it was 2.08 µM; in the assay on M14 melanoma, 3.67 µM; in the assay on MCF7 breast, 3.27 µM. For the same compound, the TGI turned out to be 3.62 µM in the assay with MDA-MB-231 breast, 6.56 µM in the assay with OVCAR-5 ovarian, 3.19 µM in the assay on RXF 393 renal and 1.04 µM in the assay with SR leukemia.

As to `c1ccc(CSc2nnc3c4ccccc4c4ccccc4c3n2)cc1`, the TGI was 72.5 µM in the assay with CCRF-CEM leukemia; 59.7 µM with HOP-92 NSCLC; > 100 µM in the assay with KM12 colon; > 100 µM with LOX IMVI melanoma; > 100 µM with M14 melanoma; > 100 µM in the assay on MCF7 breast. The TGI in the assay with MDA-MB-231 breast was > 100 µM; with OVCAR-5 ovarian, > 100 µM; in the assay with RXF 393 renal it was > 79.5 µM; in the assay with SR leukemia, > 100 µM.

Consider `COC(=O)C(F)C(Br)C(=O)OC` (centres undefined), for which the TGI in the assay with CCRF-CEM leukemia is 2.29 µM; in the assay on HOP-92 NSCLC it was 4.96 µM; in the assay on KM12 colon it was 50.6 µM; in the assay on LOX IMVI melanoma it was 32 µM; in the assay on M14 melanoma, 13.4 µM; in the assay on MCF7 breast it was 15.6 µM. For the same compound, the TGI in the assay on MDA-MB-231 breast amounted to 28.3 µM; in the assay with OVCAR-5 ovarian it was 31.8 µM; with RXF 393 renal it was 6.95 µM; with SR leukemia, 3.27 µM.

`O=C(OCCBr)c1ccc(Cl)c([N+](=O)[O-])c1`: the GI50 with CCRF-CEM leukemia is 15.6 µM; in the assay on HOP-92 NSCLC, 16000 nM; with KM12 colon it was 5000 nM; in the assay with LOX IMVI melanoma, 10200 nM; with M14 melanoma, 16400 nM; in the assay with MCF7 breast it was 2510 nM. For the same compound, the GI50 in the assay with MDA-MB-231 breast was 8.3 µM; with OVCAR-5 ovarian, 18 µM; in the assay with RXF 393 renal, 15500 nM; in the assay with SR leukemia it was 7900 nM. In addition, the TGI in the assay on CCRF-CEM leukemia was 38.7 µM; with HOP-92 NSCLC, 33.2 µM; with KM12 colon, 10.9 µM; in the assay on LOX IMVI melanoma, 26 µM; in the assay with M14 melanoma, 36.6 µM; in the assay with MCF7 breast it was 7.5 µM. Besides, the TGI in the assay on MDA-MB-231 breast stood at 21.6 µM; in the assay on OVCAR-5 ovarian, 34.5 µM; in the assay with RXF 393 renal, 29.9 µM; in the assay with SR leukemia, 31.5 µM.

As to `Nc1n[nH]c2ccc([C@@H]3Nc4ccc5[nH]ncc5c4[C@H]4C5C=CC(C5)[C@@H]34)cc12` (some centres undefined), the GI50 in the assay with CCRF-CEM leukemia was 0.342 µM; with HOP-92 NSCLC, 1460 nM; in the assay with KM12 colon it was 390 nM; with LOX IMVI melanoma, 443 nM; in the assay with M14 melanoma, 231 nM; in the assay on MCF7 breast, 140 nM. Further, the GI50 is 0.694 µM in the assay with MDA-MB-231 breast, 0.586 µM in the assay on OVCAR-5 ovarian, 110 nM in the assay with RXF 393 renal and 144 nM in the assay on SR leukemia. The TGI in the assay with CCRF-CEM leukemia is > 55.6 µM; in the assay on HOP-92 NSCLC, 10.7 µM; with KM12 colon it was 11.4 µM; in the assay on LOX IMVI melanoma it was 11.8 µM; with M14 melanoma, 1.13 µM; in the assay on MCF7 breast, 19 µM. The TGI with MDA-MB-231 breast is 12.4 µM; in the assay with OVCAR-5 ovarian, 30.3 µM; in the assay on RXF 393 renal, 0.599 µM; with SR leukemia, > 100 µM.

For `Nc1c(C(=O)Nc2ccccc2)sc2nc3c(cc12)CN(Cc1ccccc1)CC3`, the GI50 in the assay with CCRF-CEM leukemia was 50.3 µM; with HOP-92 NSCLC, 2480 nM; in the assay on KM12 colon it was 19100 nM; in the assay on LOX IMVI melanoma, 10500 nM; in the assay on M14 melanoma, 30800 nM; in the assay with MCF7 breast, 12100 nM. For the same compound, the GI50 was 5.81 µM in the assay on MDA-MB-231 breast, > 100 µM in the assay with OVCAR-5 ovarian, 3150 nM in the assay on RXF 393 renal and 13100 nM with SR leukemia. Besides, the TGI in the assay on CCRF-CEM leukemia was > 100 µM; with HOP-92 NSCLC, 20.4 µM; in the assay with KM12 colon, > 100 µM; in the assay with LOX IMVI melanoma, > 100 µM; in the assay with M14 melanoma it was > 100 µM; in the assay with MCF7 breast it was > 100 µM. In addition, the TGI in the assay on MDA-MB-231 breast was > 100 µM; in the assay with OVCAR-5 ovarian, > 100 µM; in the assay on RXF 393 renal it was 54.3 µM; in the assay on SR leukemia it was > 100 µM.
